# Like-named read-outs stand apart in the source and are kept apart here.
# Experiments:
# [1] = target: T1, p38α (Homo sapiens, UniProt Q16539); experiment: Western blot survey of p38 isoform degradation in MDA-MB-231 cells (incl. proteasome rescue, CHX chase, washout); type: cell-based; settings: for Dmax: read-out: p38α Dmax (maximum percentage of degradation achieved)
# T1 construct: selectively degrades p38α, whereas exemplary PROTAC 46 (10-atom linker, phenyl attachment) selectively degrades p38δ in MDA-MB-231 cells; endogenous in cells; host or cells: MDA-MB-231
# Experimental: (§1) FIGS. 11A and 11B. Survey of p38 isoform degradation with foretinib-based VHL PROTACs (related to FIGS. 9A-9C and Table 13). (A) Western blots of amide series PROTACs tested in increasing concentrations (0.025, 0.100, 0.250, 1.0, 5.0 μM) on MDA-MB-231 cells, in duplicate. (B) Same as in (A) but with the phenyl series PROTACs. Summary table of the DC50 (concentration at which half-maximal degradation is achieved) and Dmax (maximum percentage of degradation achieved) is reported, per exemplary PROTAC, in Table 13.
# (§2) FIGS. 13A, 13B, 13C, and 13D. Exemplary compounds 50 and 46 degrade p38 isoforms in a manner that is rapid, sustained, and proteasome-dependent. (A) MDA-MB-231 cells were either pre-treated or not with the proteasome inhibitor epoxomicin (1 μM) or the neddylation inhibitor MLN4924 (1 μM) for 30 minutes and subsequently treated with either vehicle (DMSO), exemplary compound 50 (250 nM), or exemplary compound 46 (250 nM) for 6 hours. (B) Quantitative real-time PCR was performed after 24 hours of treatment with either vehicle (DMSO), exemplary compound 50 (250 nM), or exemplary compound 46 (250 nM) in MDAMB-231 cells. The dotted line represents DMSO-treated conditions standardized to a value of 1.0 and mRNA abundance (per treatment group) is represented as a foldchange relative to that value. Data is based on biological duplicates and is normalized to beta-tubulin. (C) Cycloheximide (CHX) chase assay. MDA-MB-231 cells were pre-treated with 100 μg/mL CHX for 1 hour prior to treating for the indicated times with either vehicle (DMSO), exemplary compound 50 (250 nM), or exemplary compound 46 (250 nM). Tubulin-normalized p38α and p38δ abundance values are reported beneath individual lanes. (D) MDA-MB231 cells were treated with either vehicle (DMSO), exemplary compound 50 (250 nM), or exemplary compound 46 (250 nM) for 24 hours before re-plating onto new plastic in fresh medium for an additional 24, 48, or 72 hours (“washout” conditions).
# (§3) Cell culture. MDA-MB-231 and HeLa cells were obtained from the American Type Culture Collection (ATCC), cultured in RPMI-1640 (1×) and DMEM (1×) medium, respectively, containing 10% fetal bovine serum (FBS) and 1% penicillin-streptomycin and grown in a humidified incubator at 37° C. and 5% CO2.
# (§4) Lysates from MDA-MB-231 cells were washed once with ice cold PBS (1×), followed by lysis in buffer containing 25 mM Tris [pH 7.5], 0.25% sodium deoxycholate, 1% Triton X-100, supplemented with 1× protease inhibitor cocktail (Roche) and phosphatase inhibitors (10 mM NaF, 1 mM Na3VO4, and 20 mM β-glycerophosphate), unless otherwise noted. Lysates were spun at 14,000×g for 10 minutes at 4° C. and supernatant was evaluated for protein content using a Pierce BCA Protein Assay (Thermo Fisher Scientific). 25 to 50 μg of protein was loaded onto 10% SDS-PAGE gels or 4-20% Criterion TGX precast gradient gels (Bio-Rad), transferred to nitrocellulose membranes, and probed with the specified antibodies overnight at 4° C. in 1×TBS-Tween (Tris buffered saline plus 0.02% Tween 20) containing 5% non-fat milk. Immunoblots were visualized using a Bio-Rad ChemiDoc imaging instrument and subsequently processed and quantified using the accompanying Bio-Rad ImageLab software.
# (§5) MDA-MB-231 cells were plated at 3×10^5 cells per well in a 6-well dish, allowed to adhere overnight, and switched to serum-free RPMI-1640 (1×) media for 16 hours. Cells were then pre-treated with cycloheximide (Sigma) at 100 μg mL^−1 for 1 hour prior to adding either vehicle (DMSO) or PROTAC (250 nM). At the indicated timepoints, cells were immediately placed on ice, rinsed with 1×PBS, lysed, and boiled.
# (§6) MDA-MB-231 cells were plated at 1.5×10^5 cells per well in a 6-well dish and allowed to adhere overnight. On the following day, all cells were treated with either vehicle (DMSO) or PROTAC (250 nM). […]
# [2] = target: T2, p38δ (Homo sapiens, UniProt O15264); experiment: as above; type: cell-based
# T2 construct: endogenous in cells; host or cells: MDA-MB-231 (intact cells for degradation; cleared cell lysate for CETSA)
# T2 sequence (O15264 1-365): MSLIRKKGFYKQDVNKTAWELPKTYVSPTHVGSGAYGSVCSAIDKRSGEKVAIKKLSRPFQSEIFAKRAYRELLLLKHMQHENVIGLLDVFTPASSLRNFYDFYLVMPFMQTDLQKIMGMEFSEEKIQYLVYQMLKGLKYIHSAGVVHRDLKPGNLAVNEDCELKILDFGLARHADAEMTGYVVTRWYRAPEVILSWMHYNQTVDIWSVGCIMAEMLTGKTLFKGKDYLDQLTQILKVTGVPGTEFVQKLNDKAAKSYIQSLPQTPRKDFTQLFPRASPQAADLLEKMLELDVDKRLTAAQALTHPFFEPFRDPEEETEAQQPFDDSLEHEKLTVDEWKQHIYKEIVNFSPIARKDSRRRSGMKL
# Experimental: as §1, §2, §3, §4, §5, §6
# [3] = MDA-MB-231 cells, western blot, read-out: p38α DC50 (concentration at which half-maximal degradation is achieved)
# [4] = 250 nM 24 hours, then re-plated without compound
# [5] = 250 nM PROTAC 6 hours, pre-treated 1 μM epoxomicin or 1 μM MLN4924
# T1 sequence (Q16539 whole entry, canonical isoform): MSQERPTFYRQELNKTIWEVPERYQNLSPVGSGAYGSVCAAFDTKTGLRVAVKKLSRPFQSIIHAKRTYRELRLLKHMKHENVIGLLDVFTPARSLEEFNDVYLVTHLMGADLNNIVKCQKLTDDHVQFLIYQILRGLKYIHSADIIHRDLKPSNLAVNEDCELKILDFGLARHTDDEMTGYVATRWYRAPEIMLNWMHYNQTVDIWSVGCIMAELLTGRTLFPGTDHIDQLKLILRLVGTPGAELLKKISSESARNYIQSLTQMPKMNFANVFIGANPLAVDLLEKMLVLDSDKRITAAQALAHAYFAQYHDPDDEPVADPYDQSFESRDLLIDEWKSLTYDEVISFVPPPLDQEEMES
"Dmax ([1]; MDA-MB-231 cells, western blot) [%]","DC50 ([2]; MDA-MB-231 cells, western blot) [nM]","Dmax ([2]; MDA-MB-231 cells, western blot) [%]","DC50 ([1]; MDA-MB-231 cells, western blot, read-out: p38α DC50) [nM]","p38δ degradation efficacy maintained post-washout [2, 4] [h]","rescue of p38δ downregulation by proteasome / neddylation inhibitor [2, 5]","p38δ Dmax ([2]; MDA-MB-231 cells, western blot)",SMILES,"DC50 [1, 3] [nM]","p38α degradation efficacy maintained post-washout [1, 4] [h]","rescue of p38α downregulation by proteasome / neddylation inhibitor [1, 5]","p38α Dmax (maximum percentage of degradation achieved) ([1]; MDA-MB-231 cells, western blot)"
83,> 5000,42,–,–,–,–,COc1cc2c(Oc3ccc(NC(=O)C4(C(=O)Nc5ccc(F)cc5)CC4)cc3F)ccnc2cc1OCCCOCCCOCCC(=O)N[C@H](C(=O)N1C[C@H](O)C[C@H]1C(=O)NCc1ccc(-c2scnc2C)cc1)C(C)(C)C [Example 1],230,–,–,–
35,79.2 ± 28,98.4,> 5000,24,completely rescued,Dmax = 98.4%,COc1cc2c(Oc3ccc(NC(=O)C4(C(=O)Nc5ccc(F)cc5)CC4)cc3F)ccnc2cc1OCCOCCOCCOc1cc(-c2scnc2C)ccc1CNC(=O)[C@@H]1C[C@@H](O)CN1C(=O)[C@H](C(C)C)N1Cc2ccccc2C1=O [compound 46],–,–,–,–

SMILES,"Dmax ([1]; MDA-MB-231 cells, western blot) [%]","DC50 ([2]; MDA-MB-231 cells, western blot) [nM]","Dmax ([2]; MDA-MB-231 cells, western blot) [%]","DC50 ([1]; MDA-MB-231 cells, western blot, read-out: p38α DC50) [nM]","p38δ degradation efficacy maintained post-washout [2, 4] [h]","rescue of p38δ downregulation by proteasome / neddylation inhibitor [2, 5]","p38δ Dmax ([2]; MDA-MB-231 cells, western blot)","DC50 [1, 3] [nM]","p38α degradation efficacy maintained post-washout [1, 4] [h]","rescue of p38α downregulation by proteasome / neddylation inhibitor [1, 5]","p38α Dmax (maximum percentage of degradation achieved) ([1]; MDA-MB-231 cells, western blot)"
"COc1cc2c(Oc3ccc(NC(=O)C4(C(=O)Nc5ccc(F)cc5)CC4)cc3F)ccnc2cc1OCCCCOCCCCOCC(=O)N[C@H](C(=O)N1C[C@H](O)C[C@H]1C(=O)NCc1ccc(-c2scnc2C)cc1)C(C)(C)C [compound 50, N-(3-fluoro-4-((7-(4-(4-(2-(((S)-1-((2S,4R)-4-hydroxy-2-((4-(4-methylthiazol-5-yl)benzyl)carbamoyl)pyrrolidin-1-yl)-3,3-dimethyl-1-oxobutan-2-yl)amino)-2-oxoethoxy)butoxy)buto-xy)-6-methoxyquinolin-4-yl)oxy)phenyl)-N-(4-fluorophenyl)cyclopropane-1,1-dicarboxa-mide]",99.6,> 5000,18.5,–,–,–,–,9.5 ± 1,72,completely rescued,Dmax = 99.6%
